These results are taken from US9072660B2, “Topical itraconazole formulations and uses thereof” (THE BOARD OF TRUSTEES OF THE LELAND STANFORD JUNIOR …, priority 2011, dated 2015).

One data set deals with BCCs (Smo). To be noted: cited from earlier work.
In data set [1] the test system is BSZ BCC tumor cell line (GLI1 mRNA). Put plainly: GLI1 mRNA expression in BCC tumor cell line BSZ. The class given is cell-based, mice. The conditions noted are these: BSZ cells, vs DMSO control.
Data set [2] relates to Hedgehog signaling pathway (Smo). To be noted: cited from earlier work.
Data set [3] has as its system ASZ BCC tumor cell line (GLI1 mRNA). The data set can be described thus: GLI1 mRNA expression in BCC tumor cell line ASZ. The class given is cell-based, mice. To be noted: ASZ cells, vs DMSO control.
Data set [4] deals with BCC tumors. Put plainly: oral itraconazole in patients with BCC tumors. In kind it is in vivo, humans. To be noted: oral 400 mg per day for 1 month.
For data set [5] the following is noted: cited from earlier work.
The subject of data set [6] is BCC tumors. Put plainly: oral itraconazole on endogenous BCC tumors in PTCH1+/- K14-Cre-ER2 p53fl/fl mice. The class given is in vivo.
The conditions of data set [7]: cited from earlier work. This is another data set of the same source.

The structures appear in SMILES notation.

In the case of `CC1=C2C[C@H]3[C@@H](CC=C4C[C@@H](O)CC[C@@]43C)[C@@H]2CC[C@]12O[C@@H]1C[C@H](C)CN[C@H]1[C@H]2C` [cyclopamine], in the data set with BCCs (Smo) (model systems (in vitro and in vivo)), the “inhibition of BCCs” value is recorded as “effectively inhibited”. In addition, the side effects entry in the data set with BCCs (Smo) (systemic use) is “severe side effects”.

For the molecule `CCC(C)n1ncn(-c2ccc(N3CCN(c4ccc(OC[C@H]5CO[C@](Cn6cncn6)(c6ccc(Cl)cc6Cl)O5)cc4)CC3)cc2)c1=O` (relative stereo) [itraconazole, (2R,4S)-rel-1-(butan-2-yl)-4-{4-[4-(4-{[(2R,4S)-2-(2,4-dichlorophenyl)-2-(1H-1,2,4-triazol-1-ylmethyl)-1,3-dioxolan-4-yl]methoxy}phenyl)piperazin-1-yl]phenyl]-4,5-dihydro-1H-1,2,4-triazol-5-one], the “GLI1 mRNA expression” value in data set [1] (0.1 μM), in data set [1] (1.0 μM), in data set [3] (0.1 μM) and in data set [3] (1.0 μM) was “reduced” in each case. The “ciliary accumulation of Smo normally caused by HH stimulation” value in data set [2] was “prevents”. For the same molecule, the “inhibition of the HH signaling pathway” value in data set [2] (model cell-based assays, by binding to Smo) is “potently inhibited”. Besides, in data set [2] (model cell-based assays), the “expression of the HH target gene GLI1” value is listed as “decreased”. The “change of BCC tumor size on average (95% Confidence Interval: 11% to −62%)” value in the data set on BCC tumors [4] is recorded as −21%. Further, the Half-life in data set [5] (in vivo) was 21 h. Moreover, the “Oral Bio-availability” value in data set [5] (with meal) is listed as 55%. In the data set with BCC tumors [6] (in vivo mouse studies), the “serum concentrations required for oral anti-BCC effect in mouse vs those reached in humans at regular therapeutic doses (400 mg/day orally)” value is reported as “appreciably higher”. Also, the BCC tumor necrosis entry with BCC tumors [6] (itraconazole 400 mg/day vs cyclodextrin control treated mice, P<0.02, FIG. 2 left) is given as “caused BCC tumor necrosis”. For the same molecule, the “reduction of BCC tumor size” value in the data set with BCC tumors [6] (oral gavage, 200 mg BID, in 15 days, vs control (cyclodextrin or acetone), P<0.05, FIG. 1) was found to be 50%. In data set [7], the Protein binding is listed as 99.8%.
